Experimental data taken from patent US20250188040A1, “PHARMACEUTICAL COMPOSITIONS COMPRISING WRN HELICASE INHIBITORS” (Vividion Therapeutics, Inc., priority 2022, published 2025).

Experiments:
WRN C727 = target: T1, WRN C727 (Homo sapiens, UniProt Q14191); assay: Target engagement, in vitro (lysate), OCI-AML2; format: binding; conditions: read-out: OCI-AML2 WRN C727 TE50 in vitro (lysate)
T1 construct: endogenous in cells; host or cells: OCI-AML2
How it was run: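 Percent engagement of WRN C727 is expressed against DMSO-treated samples, measured by PRM mass spectrometry of streptavidin-enriched, probe-tagged tryptic peptides. Compound dose responses preceded probe labelling of solvent-exposed cysteines, in either living OCI-AML2 cells or their lysates.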

HCT 116 cells = assay: Cell growth assay (CellTiter-Glo 2.0), HCT 116 MSI-H cell line; conditions: Homo sapiens, HCT-116, 120 h, read-out: Cell Growth Inhibition GI50 HCT-116
Description: (§1) The effects of compound on cellular viability were determined using the CellTiter-Glo® 2.0 Luminescent Cell Viability Assay (Promega, Madison, WI).
(§2) SW480 cells were seeded at 1,000 cells per well in Eagle's Minimum Essential Medium (EMEM) with 10% FBS. Both cell lines were seeded in a volume of 50 μL medium per well. […] The concentration range was adjusted as needed for compounds of different potencies. The cells treated with compounds were incubated for 5 days at 37° C. in 5% CO2. […] The plate was then read on a Clariostar plate reader (BMG Labtech, Cary, NC) in luminescence mode. The previously measured baseline cell viability was subtracted from the luminescence value of each well, and cell viability (% of DMSO) was plotted as a function of log compound concentration. The EC50 was then calculated for each compound using Dotmatics Software (San Diego, CA).

SW480 cells = assay: Cell growth assay (CellTiter-Glo 2.0), SW480 MSS cell line; conditions: Homo sapiens, SW480, 120 h, read-out: Cell Growth Inhibition GI50 SW480
Description: as §1, §2

[1] = target: hWRN(519-1227)_C-H3CV-GFP-10His (Homo sapiens, UniProt Q14191); assay: Helicase Assay for WRN Inhibition (ATP-dependent, fluorescence based); conditions: WRN Helicase IC50, 30 min preincubation with ATP, 30 min reaction
hWRN(519-1227)_C-H3CV-GFP-10His, sequence (Q14191 519-1227): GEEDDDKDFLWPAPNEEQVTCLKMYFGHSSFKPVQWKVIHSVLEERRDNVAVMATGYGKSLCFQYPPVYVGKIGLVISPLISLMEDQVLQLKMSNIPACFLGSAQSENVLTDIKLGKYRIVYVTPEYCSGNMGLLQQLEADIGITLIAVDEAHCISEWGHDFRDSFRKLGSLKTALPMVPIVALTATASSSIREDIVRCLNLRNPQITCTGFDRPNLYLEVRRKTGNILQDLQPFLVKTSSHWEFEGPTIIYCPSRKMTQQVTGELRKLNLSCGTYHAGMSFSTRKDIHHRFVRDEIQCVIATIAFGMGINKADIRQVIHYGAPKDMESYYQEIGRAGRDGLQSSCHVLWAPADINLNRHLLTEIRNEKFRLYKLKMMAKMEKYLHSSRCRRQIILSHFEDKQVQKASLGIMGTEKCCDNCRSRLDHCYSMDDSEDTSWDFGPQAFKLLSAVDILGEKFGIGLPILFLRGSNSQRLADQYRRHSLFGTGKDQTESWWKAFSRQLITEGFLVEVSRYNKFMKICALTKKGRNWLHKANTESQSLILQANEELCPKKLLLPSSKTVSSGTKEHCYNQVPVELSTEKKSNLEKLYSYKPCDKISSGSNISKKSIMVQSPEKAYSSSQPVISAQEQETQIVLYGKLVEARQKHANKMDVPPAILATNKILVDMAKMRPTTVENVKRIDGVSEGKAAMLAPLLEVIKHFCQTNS
Description: Effects of compounds on WRN helicase activity were assessed with the Helicase Assay for WRN Inhibition. This is an ATP-dependent (inclusion of ATP is important and is required for this assay) fluorescence based assay using recombinant WRN and a fluorogenic DNA substrate.
WRN activity was normalized to signal from wells without WRN protein (background, 0% activity) and wells with protein treated only with DMSO (positive control, 10000 activity). For each compound the potency of inhibition (IC50) was determiined using Graphpad Prism.

T1 sequence (Q14191 whole entry): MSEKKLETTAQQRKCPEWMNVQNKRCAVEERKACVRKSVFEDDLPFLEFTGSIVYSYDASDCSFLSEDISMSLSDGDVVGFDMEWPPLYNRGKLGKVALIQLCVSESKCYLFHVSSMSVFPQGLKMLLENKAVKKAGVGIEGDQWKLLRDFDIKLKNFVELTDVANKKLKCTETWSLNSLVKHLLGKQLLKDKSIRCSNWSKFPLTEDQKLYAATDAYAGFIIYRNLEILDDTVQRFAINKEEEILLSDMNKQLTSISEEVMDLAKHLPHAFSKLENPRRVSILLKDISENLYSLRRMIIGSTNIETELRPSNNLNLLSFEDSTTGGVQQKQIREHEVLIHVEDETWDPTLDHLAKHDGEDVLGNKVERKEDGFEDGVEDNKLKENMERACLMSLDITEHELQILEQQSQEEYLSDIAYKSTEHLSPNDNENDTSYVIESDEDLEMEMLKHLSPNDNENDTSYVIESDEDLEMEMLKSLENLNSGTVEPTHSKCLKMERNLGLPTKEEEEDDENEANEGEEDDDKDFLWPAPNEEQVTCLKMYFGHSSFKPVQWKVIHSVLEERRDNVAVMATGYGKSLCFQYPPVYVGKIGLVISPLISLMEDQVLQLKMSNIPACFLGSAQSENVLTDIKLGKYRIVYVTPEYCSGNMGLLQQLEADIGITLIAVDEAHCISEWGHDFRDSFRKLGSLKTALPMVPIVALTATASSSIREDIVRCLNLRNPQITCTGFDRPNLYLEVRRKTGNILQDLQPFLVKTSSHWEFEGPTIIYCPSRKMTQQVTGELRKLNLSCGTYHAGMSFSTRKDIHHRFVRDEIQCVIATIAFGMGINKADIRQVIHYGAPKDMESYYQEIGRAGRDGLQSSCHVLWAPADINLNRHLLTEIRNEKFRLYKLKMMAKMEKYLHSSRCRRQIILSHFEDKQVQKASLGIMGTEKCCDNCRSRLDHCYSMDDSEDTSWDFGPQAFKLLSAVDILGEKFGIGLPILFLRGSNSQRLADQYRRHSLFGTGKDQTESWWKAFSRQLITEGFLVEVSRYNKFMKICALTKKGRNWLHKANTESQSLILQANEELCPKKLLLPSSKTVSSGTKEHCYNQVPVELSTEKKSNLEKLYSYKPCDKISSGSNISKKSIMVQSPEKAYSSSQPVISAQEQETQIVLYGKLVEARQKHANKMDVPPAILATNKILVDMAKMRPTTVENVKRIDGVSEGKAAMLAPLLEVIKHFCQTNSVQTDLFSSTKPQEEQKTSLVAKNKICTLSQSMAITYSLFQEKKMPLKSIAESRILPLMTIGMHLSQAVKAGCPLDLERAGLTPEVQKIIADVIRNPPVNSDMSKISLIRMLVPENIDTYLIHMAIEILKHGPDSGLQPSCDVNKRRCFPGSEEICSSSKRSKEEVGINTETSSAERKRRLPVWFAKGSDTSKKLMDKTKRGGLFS

| Compound | IC50 (WRN C727) | GI50 (HCT 116 cells) | GI50 (SW480 cells) | IC50 [1] |
| --- | --- | --- | --- | --- |
| CC(C)(C)c1ncc(C(=O)N[C@H](/C=C/S(C)(=O)=O)C2CC(F)(F)C2)c(Oc2ccccc2)n1 [Example 67, (S,E)-2-(tert-butyl)-N-(1-(3,3-difluorocyclobutyl)-3-(methylsulfonyl)allyl)-4-phenoxypyrimidine-5-carboxamide] | 0.5 µM | 0.0439 µM | 9.78 µM | 0.14 µM |
| CSC[C@@H](/C=C/S(C)(=O)=O)NC(=O)c1cnc(C(C)(C)C)nc1Oc1ccccc1 [Example 68, (R,E)-2-(tert-butyl)-N-(4-(methylsulfonyl)-1-(methylthio)but-3-en-2-yl)-4-phenoxypyrimidine-5-carboxamide] | 1 µM | 0.23 µM | 31.4 µM | 0.18 µM |
| CO[C@H](C)[C@@H](/C=C/S(C)(=O)=O)NC(=O)c1cnc(C(C)(C)C)nc1Oc1ccccc1 [Example 69, 2-(tert-butyl)-N-((3R,4R,E)-4-methoxy-1-(methylsulfonyl)pent-1-en-3-yl)-4-phenoxypyrimidine-5-carboxamide] | 11 µM | 1.22 µM | 51.6 µM | 3.39 µM |
| CC(C)(C)c1ncc(C(=O)N[C@H](/C=C/S(C)(=O)=O)C2CCOCC2)c(Oc2ccccc2)n1 [Example 70, (S,E)-2-(tert-butyl)-N-(3-(methylsulfonyl)-1-(tetrahydro-2H-pyran-4-yl)allyl)-4-phenoxypyrimidine-5-carboxamide] | 0.79 µM | 0.13 µM | > 58.7 µM | 0.24 µM |
| CC(C)(C)c1ncc(C(=O)N[C@H](/C=C/S(C)(=O)=O)C2CCC(F)(F)CC2)c(Oc2ccccc2)n1 [Example 72, (S,E)-2-(tert-butyl)-N-(1-(4,4-difluorocyclohexyl)-3-(methylsulfonyl)allyl)-4-phenoxypyrimidine-5-carboxamide] | 0.6 µM | 0.0467 µM | 45.2 µM | 0.16 µM |
| CC(C)(C)c1ncc(C(=O)N[C@H](/C=C/S(C)(=O)=O)CC(F)F)c(Oc2ccccc2)n1 [Example 73, (S,E)-2-(tert-butyl)-N-(5,5-difluoro-1-(methylsulfonyl)pent-1-en-3-yl)-4-phenoxypyrimidine-5-carboxamide] | 0.47 µM | 0.3 µM | 16 µM | 0.15 µM |
| CS(=O)(=O)/C=C/CNC(=O)c1cnc(C2CCCCC2)nc1Oc1ccccc1 [Example 76, (E)-2-cyclohexyl-N-(3-(methylsulfonyl)allyl)-4-phenoxypyrimidine-5-carboxamide] | 50 µM | 3.4 µM | > 10 µM | 4.9 µM |
| C[C@@H](/C=C/S(C)(=O)=O)NC(=O)c1cnc(C2CCCO2)nc1Oc1ccccc1 (stereo partly drawn) [Example 78, N—((S,E)-4-(methylsulfonyl)but-3-en-2-yl)-4-phenoxy-2-(tetrahydrofuran-2-yl)pyrimidine-5-carboxamide] | 50 µM | 2.6 µM | > 10 µM | 9.33 µM |
| CS(=O)(=O)/C=C/[C@@H](NC(=O)c1cnc(C(F)(F)F)nc1Oc1ccccc1)C1CC1 [Example 82, (S,E)-N-(1-cyclopropyl-3-(methylsulfonyl)allyl)-4-phenoxy-2-(trifluoromethyl)pyrimidine-5-carboxamide] | 0.7 µM | 0.28 µM | 20 µM | 0.55 µM |
| C[C@@H](/C=C/S(C)(=O)=O)NC(=O)c1cnc(C(F)(F)C(F)(F)F)nc1Oc1ccccc1 [Example 83, (S,E)-N-(4-(methylsulfonyl)but-3-en-2-yl)-2-(perfluoroethyl)-4-phenoxypyrimidine-5-carboxamide] | 0.38 µM | 0.202 µM | 19.1 µM | 0.238 µM |
| COC[C@@H](/C=C/S(C)(=O)=O)NC(=O)c1cnc(C(F)(F)C(F)(F)F)nc1Oc1ccccc1 [Example 85, (R,E)-N-(1-methoxy-4-(methylsulfonyl)but-3-en-2-yl)-2-(perfluoroethyl)-4-phenoxypyrimidine-5-carboxamide] | 0.22 µM | 0.0484 µM | 11.5 µM | 0.12 µM |
| CN(C)C(=O)C[C@@H](/C=C/S(C)(=O)=O)NC(=O)c1cnc(C(C)(F)F)nc1Oc1ccccc1 [Example 92, (S,E)-2-(1,1-difluoroethyl)-N-(5-(dimethylamino)-1-(methylsulfonyl)-5-oxopent-1-en-3-yl)-4-phenoxypyrimidine-5-carboxamide] | 10 µM | 0.245 µM | 43 µM | 1.1 µM |
| CO[C@@H](C)[C@@H](/C=C/S(C)(=O)=O)NC(=O)c1cnc(C(C)(F)F)nc1Oc1ccccc1 [Example 93, 2-(1,1-difluoroethyl)-N-((3R,4S,E)-4-methoxy-1-(methylsulfonyl)pent-1-en-3-yl)-4-phenoxypyrimidine-5-carboxamide] | 4.19 µM | 0.128 µM | 87.5 µM | 0.46 µM |
| CC(C)(C)OC[C@@H](/C=C/S(C)(=O)=O)NC(=O)c1cnc(C(C)(F)F)nc1Oc1ccccc1 [Example 96, (R,E)-N-(1-(tert-butoxy)-4-(methylsulfonyl)but-3-en-2-yl)-2-(1,1-difluoroethyl)-4-phenoxypyrimidine-5-carboxamide] | 0.4 µM | 0.0369 µM | 27.5 µM | 0.2 µM |
| C[C@@H](/C=C/S(C)(=O)=O)NC(=O)c1cnc(C2(F)CC2)nc1Oc1ccccc1 [Example 99, (S,E)-2-(1-fluorocyclopropyl)-N-(4-(methylsulfonyl)but-3-en-2-yl)-4-phenoxypyrimidine-5-carboxamide] | 10 µM | 0.74 µM | 40 µM | 2 µM |
| C[C@@H](/C=C/S(C)(=O)=O)NC(=O)c1cnc(C2(C(F)(F)F)CC2)nc1Oc1ccccc1 [Example 101, (S,E)-N-(4-(methylsulfonyl)but-3-en-2-yl)-4-phenoxy-2-(1-(trifluoromethyl)cyclopropyl)pyrimidine-5-carboxamide] | 6.03 µM | 0.374 µM | 7.86 µM | 1.1 µM |
| C[C@@H](/C=C/S(C)(=O)=O)NC(=O)c1cnc(C2CC(F)(F)C2)nc1Oc1ccccc1 [Example 103, (S,E)-2-(3,3-difluorocyclobutyl)-N-(4-(methylsulfonyl)but-3-en-2-yl)-4-phenoxypyrimidine-5-carboxamide] | 3.43 µM | 0.359 µM | 20.4 µM | 1.5 µM |
| CS(=O)(=O)/C=C/CNC(=O)c1cnc(C2CCCC2)nc1Oc1ccc(F)cc1 [Example 112, (E)-2-cyclopentyl-4-(4-fluorophenoxy)-N-(3-(methylsulfonyl)allyl)pyrimidine-5-carboxamide] | 7.43 µM | 4.8 µM | > 10 µM | 4.6 µM |
| C[C@@H](/C=C/S(C)(=O)=O)NC(=O)c1cnc(C2CCCC2)nc1Oc1ccc(F)cc1 [Example 113, (S,E)-2-cyclopentyl-4-(4-fluorophenoxy)-N-(4-(methylsulfonyl)but-3-en-2-yl)pyrimidine-5-carboxamide] | 2.33 µM | 1.1 µM | 6.2 µM | 1.8 µM |
| C[C@@H](/C=C/S(C)(=O)=O)NC(=O)c1cnc(C2CCCC2)nc1Oc1ccccc1F [Example 115, (S,E)-2-cyclopentyl-4-(2-fluorophenoxy)-N-(4-(methylsulfonyl)but-3-en-2-yl)pyrimidine-5-carboxamide] | 30.1 µM | 2.1 µM | > 10 µM | 2.9 µM |
| CS(=O)(=O)/C=C/CNC(=O)c1cnc(C2CCCC2)nc1Oc1cccc(Cl)c1 [Example 117, (E)-4-(3-chlorophenoxy)-2-cyclopentyl-N-(3-(methylsulfonyl)allyl)pyrimidine-5-carboxamide] | > 100 µM | 6 µM | 7.4 µM | 6.7 µM |
| C[C@@H](/C=C/S(C)(=O)=O)NC(=O)c1cnc(C2CCCC2)nc1Oc1ccc(C#N)cc1 [Example 124, (S,E)-4-(4-cyanophenoxy)-2-cyclopentyl-N-(4-(methylsulfonyl)but-3-en-2-yl)pyrimidine-5-carboxamide] | 6.92 µM | > 10 µM | > 10 µM | 14 µM |
| C[C@@H](/C=C/S(C)(=O)=O)NC(=O)c1cnc(C2CCCC2)nc1Oc1cccnc1 [Example 125, (S,E)-2-cyclopentyl-N-(4-(methylsulfonyl)but-3-en-2-yl)-4-(pyridin-3-yloxy)pyrimidine-5-carboxamide] | 52.2 µM | 3.1 µM | > 10 µM | 12.5 µM |
| C[C@@H](/C=C/S(C)(=O)=O)NC(=O)c1cnc(C2CCCC2)nc1OC1CCC1 [Example 127, (S,E)-4-cyclobutoxy-2-cyclopentyl-N-(4-(methylsulfonyl)but-3-en-2-yl)pyrimidine-5-carboxamide] | 7.28 µM | 1.3 µM | 5.3 µM | 4.27 µM |
| C[C@@H](/C=C/S(C)(=O)=O)NC(=O)c1cnc(C2CCCC2)nc1OC1CCCCCC1 [Example 128, (S,E)-4-(cycloheptyloxy)-2-cyclopentyl-N-(4-(methylsulfonyl)but-3-en-2-yl)pyrimidine-5-carboxamide] | 25.1 µM | 2.5 µM | 4.2 µM | 5.9 µM |
